# Where two headings read alike, the source gives them in different places.
# What was measured:
# [1] = target: T1, human XIAP protein (residues 120-356) (Homo sapiens, UniProt P98170); test: Fluorescence-polarization-based binding assay to XIAP protein (Smac2-F tracer)
# T1 construct: human XIAP protein (residues 120-356) (10 nM)
# Method: The polarization values were measured after 2 hours incubation, using the Ultra plate reader. […] Curve fitting is performed using GraphPad Prism® software.
# [2] = test system: MDA-MB-231 human breast cancer cell line; test: Cell growth inhibition, WST-8 assay, MDA-MB-231; type: cell-based
# Method: (§1) The rate of cell growth inhibition after treatment with different concentrations of the compound was determined using a WST-8 kit (2-(2-methoxy-4-nitrophenyl)-3-(4-nitrophenyl)-5-(2, 4 disulfophenyl)-2H-tetrazolium monosodium salt; Dojindo Molecular Technologies, Inc., Gaithersburg, Md.). WST-8 was added at a final concentration of 10% to each well, and then the plates were incubated at 37° C. for 2-3 hrs. The absorbance of the samples was measured at 450 nm using a ULTRA Tecan Reader (Molecular Device).
# MDA-MB-231 cells = test: Trypan blue cell viability assay, MDA-MB-231; type: cell-based, human; conditions: 100 nM, 2 days
# Method: 0.3×10^6 cells were seeded in 6 well plates and incubated at 37° C. in an atmosphere of 95% air and 5% CO2 without or with tested compound for 2 days. A 1:1 dilution of 0.4% Trypan blue (Invitrogen Corporation) was used to determine cell viability.
# [3] = test system: MDA-MB-231 (2LMP) human breast cancer cells; test: Cell growth inhibition by cisplatin or mitoxantrone with SH-164; type: cell-based; conditions: 100 nM
# Method: as §1, with “Cells were seeded in 96-well flat bottom cell culture plates at a density of 3000 cells/well with a tested compound and incubated at 37° C. in an atmosphere of 95% air and 5% CO2 for 4 days. The rate” for “The rate”
# [4] = target: cIAP-1 protein containing both BIR2 and BIR3 domains (Homo sapiens, UniProt Q13490); test: Fluorescence-polarization based binding assay, cIAP-1 BIR2-BIR3
# Chain of cIAP-1 protein containing both BIR2 and BIR3 domains (Q13490 174-352 limits assumed): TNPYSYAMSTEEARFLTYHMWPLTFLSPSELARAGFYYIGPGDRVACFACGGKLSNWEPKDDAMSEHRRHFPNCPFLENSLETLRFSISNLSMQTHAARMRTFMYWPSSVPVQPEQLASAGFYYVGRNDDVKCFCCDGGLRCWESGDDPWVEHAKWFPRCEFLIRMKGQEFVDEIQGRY
# [5] = test system: MALME-3M melanoma cell line; test: Apoptosis assay (Annexin V/P.I.), MALME-3M; type: cell-based; conditions: 1 nM for 12 h
# Method: Analysis of apoptosis was performed using an apoptosis detection kit (BioVision Research Products, Mountain View, Calif.) according to the manufacturer's protocol. Briefly, cells were treated with Smac mimetics for 12 hours, harvested and washed with ice-cold PBS. Cells were stained with Annexin V-FITC and Propidium iodide (P.I.) for 15 minutes at room temperature in the dark and immediately analyzed by FACS calibur flow cytometer (Becton Dickinson, Erembodegem, Belgium). Cells that were stained Annexin V (+) and P.I. (−) were considered early-stage apoptotic cells. Cells that were stained annexin V (+) and P.I. (+) were considered late-stage apoptotic cells and cells that were stained annexin V (−) and P.I. (+) were considered necrotic cells (FIG. 6).
# (§2) Treatment with SM-164 at 1 nM for 12 h induced 32%, 33%, and 37% of the MDA-MB-231, SK-OV-3 and MALME-3M cells to undergo apoptosis, respectively (FIGS. 12-14).
# [6] = test system: MDA-MB-231, SK-OV-3 and MALME-3M cell lines; test: Western blot analysis of caspase processing and PARP cleavage; type: cell-based
# Method: as §2
# [7] = test system: MDA-MB-231, MALME-3M and SK-OV-3 cell lines; test: Cell death induction with TNFα or TRAIL neutralizing antibody; type: cell-based
# [8] = test system: sensitive cancer cell lines (MDA-MB-231, MALME-3M, SK-OV-3); test: XIAP knockdown by siRNA with exogenous TNFα, cell death; type: cell-based
# Method: To investigate the role of XIAP in apoptosis induction by Smac mimetics, XIAP was knocked down in sensitive cancer cell lines. Because XIAP knockdown attenuated the production and secretion of TNFα (FIG. 34) (Gaither et al., Cancer Res. 67:11493 (2007)), exogenous TNFα was added in these XIAP knockdown experiments. […] For example, while SM-122 at 100 nM in combination with TNFα killed 25% of the MDA-MB-231 cells when control siRNA was used, the same combination killed 75% of the cells when XIAP was knocked down.
# This is consistent with binding and functional data that indicates SM-164 binds to XIAP with a high affinity and is a potent antagonist of XIAP.
# [9] = test system: HCT116 XIAP^+/+ and XIAP^−/− isogenic cell lines; test: HCT116 XIAP+/+ and XIAP-/- isogenic cell lines, Smac mimetics with TNFα; type: cell-based
# Text: To complement the siRNA experiments and to more precisely define the role of XIAP in TNFα-dependent apoptosis induction by Smac mimetics, HCT116 XIAP^+/+ and XIAP^−/− isogenic cell lines were used in further studies (Cummins et al., Cancer Res. 64:3006 (2004)). Since both these cell lines were resistant to SM-122 and SM-164 as a single agent (FIG. 41), the role of XIAP using Smac mimetics in combination with TNFα was investigated.
# The combination of SM-164 at these concentrations with TNFα was effective in induction of caspase-3 activation, PARP cleavage and in inhibition of cell growth in the XIAP^+/+ cell line (FIG. 42). Although knockout of XIAP sensitized the HCT116 cells to SM-164 in combination with TNFα, the effect was much less than that observed with the combination of SM-122 with TNFα (FIG. 42).
# [10] = test system: XIAP stably transfected Jurkat leukemia cell line (XIAP-JK) and vector control cell line (VEC-JK); test: XIAP-overexpressing Jurkat cells, Smac mimetics with TNFα; type: cell-based
# Text: The effect of XIAP overexpression in cancer cells on TNFα-dependent apoptosis induction by Smac mimetics was investigated. Since stable transfection of XIAP in those sensitive cancer cell lines was unsuccessful, the previously well-characterized XIAP stably transfected Jurkat leukemia cell line (XIAP-JK) and its vector control cell line (VEC-JK) were employed (Wilkinson et al., Mol. Cell. Biol. 24:7003 (2004)). The VEC-JK cell line with low expression of XIAP was sensitive to SM-122 or SM-164 in combination with TNFα (FIG. 43).
# cellular XIAP = cellular XIAP (Homo sapiens, UniProt P98170); conditions: cited from earlier work
# Chain of cellular XIAP (P98170 whole entry): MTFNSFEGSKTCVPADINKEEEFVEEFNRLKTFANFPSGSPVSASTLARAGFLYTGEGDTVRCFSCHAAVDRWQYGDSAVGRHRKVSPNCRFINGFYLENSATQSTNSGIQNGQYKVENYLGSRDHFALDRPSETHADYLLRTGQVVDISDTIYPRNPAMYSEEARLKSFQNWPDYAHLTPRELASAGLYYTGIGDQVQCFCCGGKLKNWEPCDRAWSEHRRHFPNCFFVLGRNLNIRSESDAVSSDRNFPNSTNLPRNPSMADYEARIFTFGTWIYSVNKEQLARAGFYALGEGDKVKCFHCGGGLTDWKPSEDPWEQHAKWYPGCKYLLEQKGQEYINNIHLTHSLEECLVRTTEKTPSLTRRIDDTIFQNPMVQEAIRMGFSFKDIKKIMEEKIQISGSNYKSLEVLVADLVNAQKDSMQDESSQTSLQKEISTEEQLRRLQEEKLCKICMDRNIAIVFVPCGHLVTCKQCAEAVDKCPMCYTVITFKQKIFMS
# T1 sequence (P98170 120-356): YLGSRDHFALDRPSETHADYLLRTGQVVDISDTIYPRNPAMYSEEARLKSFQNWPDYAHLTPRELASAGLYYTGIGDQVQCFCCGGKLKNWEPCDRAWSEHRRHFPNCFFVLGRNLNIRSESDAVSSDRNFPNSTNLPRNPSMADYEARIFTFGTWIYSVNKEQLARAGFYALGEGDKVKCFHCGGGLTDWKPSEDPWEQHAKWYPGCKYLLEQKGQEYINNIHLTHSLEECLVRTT
smiles,measurement,setting,value
CN[C@@H](C)C(=O)N[C@H]1CCCC[C@H]2CC[C@@H](C(=O)N[C@@H](c3ccccc3)c3cn(CCCCc4ccc(CCCCn5cc([C@@H](NC(=O)[C@@H]6CC[C@@H]7CCCC[C@H](NC(=O)[C@H](C)NC)C(=O)N76)c6ccccc6)nn5)cc4)nn3)N2C1=O [SH-164],binding affinity better than the monovalent Smac mimetic SH-122,[1],more than 500 fold
same,more potent than the natural Smac peptide AVPI,[1],> 5000 times
same,IC50,"[2]; MDA-MB-231, 96 h, 4 days, WST-8, read-out: IC50 cell growth inhibition",1.4 nM
same,IC50,"[2]; MDA-MB-231, read-out: IC50 values (nM) In WST-assay (MDA-MB-231)",< 10 nM
same,cell death,MDA-MB-231 cells,at least 70%
same,sensitization to growth inhibition by cisplatin and mitoxantrone,[3],sensitized the cells to growth inhibition by both agents
same,Ki,[4],0.31 nM
same,more potent than SM-122 to cIAP-1,[4],9 times
same,cells undergoing apoptosis,[5],37%
same,"induction of cell death, caspase processing and PARP cleavage, comparison",[6]; SM-164 at 1 nM,"as effective as SM-122 at 1,000 nM"
same,"levels of pro-caspase-3, -8 and -9 (cleaved PARP increased)",[6]; concentration as low as 1 nM,markedly decreased
same,cell death induction in presence of neutralizing antibodies,[7],"effectively blocked by a TNFα, but not by a TRAIL, neutralizing antibody"
same,cell death induction,"[8]; 3 and 10 nM, with or without TNFα",effectively induced cell death
same,sensitization by knockdown of XIAP,[8]; presence of exogenous TNFα,only modestly sensitized
same,"caspase-3 activation, PARP cleavage and cell growth inhibition","[9]; 10-100 nM with TNFα, XIAP+/+ cell line",effective
same,cIAP-1 degradation,"[9]; 10-100 nM, both cell lines",effectively induced cIAP-1 degradation
same,sensitivity as a single agent,[9]; both cell lines,resistant
same,sensitivity in combination with TNFα,[10]; VEC-JK cell line,sensitive
same,sensitivity in combination with TNFα,[10]; XIAP-JK cell line,much less effective than in the VEC-JK cell line
same,more potent than SM-122 in competing off a biotinylated Smac mimetic to cellular XIAP,cellular XIAP,> 100 times
